According to patent EP2236511A2, “LIGANDS OF ALPHA-ADRENOCEPTORS AND OF DOPAMINE, HISTAMINE, IMIDAZOLINE AND SEROTONIN RECEPTORS AND THE USE THEREOF” (priority 2007, dated 2009):
Structures can show the parent of a compound that is named as a salt. Where two headings read alike, the source gives them in different places.

Assays:
imidazoline receptor I2 = assay: Radioligand binding to imidazoline receptor I2 ([3H] Idazoxan, rat brain membranes)
Description: For this purpose membrane species are prepared from rat (Wistar) brain homogenates by homogenization of them in glass homogenizer with the subsequent separation of plasmatic membranes from cell nuclei, mitochondrias and cell wreckages by differential centrifugation. […] After incubation the samples are filtered in vacuo on glass-microfiber filters G/F (Millipor, USA), filters are washed three times with cold solution of medium and radioactivity is measured by scintillation counter MicroBeta 340 (Perkin Elmer, USA). […] Idazoxan is used as positive control.
The tested compounds' binding to the receptor is determined by their ability to displace the radioligand and expressed in percent of displacement (%I). Values of %I are calculated according to the following equation: %I = (TA-CA)/(TA-NA)*100, [formula] wherein: TA - is the overall radioactivity in the presence of radioligand only, CA - is the radioactivity in the presence of radioligand and tested compound and NA - is a radioactivity in the presence of radioligand and Idazoxan (1 µM).

adrenergic receptor α1A = target: T1, adrenergic receptor α1A (Rattus norvegicus, UniProt P43140); assay: Radioligand binding to adrenergic receptor α1A ([3H] Prazosin, rat submaxillary gland membranes); conditions: for nH: Receptor α1A
T1 construct: membrane species from rat submaxillary glands (rat of Wistar breed) are prepared; from tissue; host or cells: rat (Wistar) submaxillary gland
T1 sequence (P43140 1-466): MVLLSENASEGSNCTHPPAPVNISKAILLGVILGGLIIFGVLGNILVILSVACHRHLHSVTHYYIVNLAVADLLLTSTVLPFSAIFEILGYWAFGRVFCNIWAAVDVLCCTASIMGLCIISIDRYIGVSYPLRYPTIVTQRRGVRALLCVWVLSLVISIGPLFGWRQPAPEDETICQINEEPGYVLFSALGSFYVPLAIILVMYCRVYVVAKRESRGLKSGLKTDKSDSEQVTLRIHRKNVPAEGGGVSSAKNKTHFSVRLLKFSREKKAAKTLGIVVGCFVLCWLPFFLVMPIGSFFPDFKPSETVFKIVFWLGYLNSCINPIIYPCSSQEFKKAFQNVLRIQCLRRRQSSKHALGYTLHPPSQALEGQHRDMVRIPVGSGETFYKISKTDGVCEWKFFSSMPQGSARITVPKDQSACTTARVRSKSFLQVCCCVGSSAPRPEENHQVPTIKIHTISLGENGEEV
Description: Determination of investigated compounds' binding to α1A receptor was carried out according to the method described in [Michel AD, Loury DN and Whiting R1. Identification of a single α1A-adrenoceptor corresponding to the α1A-subtype in rat submaxillary gland. […] Prazosin is used as positive control.

adrenergic receptor α1B = target: T2, adrenergic receptor α1B (Rattus norvegicus, UniProt P15823); assay: Radioligand binding to adrenergic receptor α1B ([3H] Prazosin, rat liver membranes); conditions: for nH: Receptor α1B
T2 construct: membrane species from rat liver (rat of Wistar breed) are prepared; from tissue; host or cells: rat (Wistar) liver
T2 sequence (P15823 1-515): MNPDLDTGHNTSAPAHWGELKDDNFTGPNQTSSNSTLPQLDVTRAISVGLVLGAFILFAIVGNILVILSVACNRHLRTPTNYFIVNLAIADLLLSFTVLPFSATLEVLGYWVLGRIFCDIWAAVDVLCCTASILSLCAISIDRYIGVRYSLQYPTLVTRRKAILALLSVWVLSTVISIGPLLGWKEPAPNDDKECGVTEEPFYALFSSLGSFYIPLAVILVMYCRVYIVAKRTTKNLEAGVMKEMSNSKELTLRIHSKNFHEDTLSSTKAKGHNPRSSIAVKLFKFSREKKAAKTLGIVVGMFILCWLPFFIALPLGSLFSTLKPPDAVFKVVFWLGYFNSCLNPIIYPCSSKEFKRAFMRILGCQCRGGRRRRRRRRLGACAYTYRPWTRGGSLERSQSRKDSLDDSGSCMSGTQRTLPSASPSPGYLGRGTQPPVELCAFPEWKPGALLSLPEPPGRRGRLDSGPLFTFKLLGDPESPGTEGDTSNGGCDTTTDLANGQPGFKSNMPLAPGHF
From the text: Species heterogeneity of hepatic α1A-, α1B-, and α1C-subtypes. Biochem Biophys Res Commun. […] Prazosin is used as positive control.

[1] = target: T3, recombinant human 5-HT6 receptor (Homo sapiens, UniProt P50406); assay: Radioligand binding to serotonin receptor 5-HT6 ([3H] Lysergic acid diethylamide, HeLa membranes)
T3 construct: expressed in transfected cells; host or cells: HeLa
T3 sequence (P50406 whole entry): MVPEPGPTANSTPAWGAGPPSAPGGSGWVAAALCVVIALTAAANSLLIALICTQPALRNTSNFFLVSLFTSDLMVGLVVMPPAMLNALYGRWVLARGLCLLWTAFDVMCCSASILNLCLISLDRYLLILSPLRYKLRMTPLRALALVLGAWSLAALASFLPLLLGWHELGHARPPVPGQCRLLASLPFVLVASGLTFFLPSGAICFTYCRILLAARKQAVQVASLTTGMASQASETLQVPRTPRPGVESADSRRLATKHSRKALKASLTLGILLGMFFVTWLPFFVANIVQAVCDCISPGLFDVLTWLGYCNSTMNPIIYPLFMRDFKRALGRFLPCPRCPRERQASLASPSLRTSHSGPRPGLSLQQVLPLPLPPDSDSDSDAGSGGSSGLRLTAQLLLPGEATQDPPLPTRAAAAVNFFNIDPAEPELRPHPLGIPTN
From the text: Mol Pharmacol. 43:320-327, 1993]. […] Methiothepin is used as positive control.

human α1D receptor = target: T4, human α1D receptor (Homo sapiens, UniProt P25100); assay: Radioligand binding to adrenergic receptor α1D ([3H] Prazosin, HEK-293 membranes); conditions: for nH: Receptor α1D
T4 construct: expressed in transfected cells; host or cells: HEK-293
T4 sequence (P25100 1-572): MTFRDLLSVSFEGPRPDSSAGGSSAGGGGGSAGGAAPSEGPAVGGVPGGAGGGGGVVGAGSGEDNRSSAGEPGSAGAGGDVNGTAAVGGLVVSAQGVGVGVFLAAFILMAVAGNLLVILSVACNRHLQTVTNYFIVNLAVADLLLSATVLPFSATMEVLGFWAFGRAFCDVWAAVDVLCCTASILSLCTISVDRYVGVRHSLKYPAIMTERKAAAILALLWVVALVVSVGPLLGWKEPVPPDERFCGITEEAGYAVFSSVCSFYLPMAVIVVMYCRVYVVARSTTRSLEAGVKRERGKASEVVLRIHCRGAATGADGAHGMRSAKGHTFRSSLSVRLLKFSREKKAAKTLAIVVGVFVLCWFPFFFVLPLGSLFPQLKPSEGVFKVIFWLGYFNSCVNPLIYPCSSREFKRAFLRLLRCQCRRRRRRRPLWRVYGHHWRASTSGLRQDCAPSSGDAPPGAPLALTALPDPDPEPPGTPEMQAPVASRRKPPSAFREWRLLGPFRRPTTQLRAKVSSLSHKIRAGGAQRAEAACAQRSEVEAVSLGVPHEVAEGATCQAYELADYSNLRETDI
From the text: 6-C. […] For this purpose sDNA of human α1D receptor is expressed in HEK-293 cells, as it was described in [TL Theroux, TA Esbenshade, RD Peavy and KP Minneman. Coupling efficiencies of human alpha 1-adrenergic receptor subtypes: titration of receptor density and responsiveness with inducible and repressible expression vectors. Mol Pharmacol.; 50: 1376-1387, 1996]. […] Characterization of an α1D-adrenoceptor mediating the contractile response of rat aorta to noradrenaline. […] Prazosin is used as positive control.

human H2 receptor = target: T5, human H2 receptor (Homo sapiens, UniProt P25021); assay: Radioligand binding to histamine receptor H2 ([125I] Aminopotentidine, CHO-K1 membranes); conditions: for inhibition at 10 µM: read-out: Histamine receptors, % inhibition H2
T5 construct: expressed in transfected cells; host or cells: CHO-K1
T5 sequence (P25021 whole entry): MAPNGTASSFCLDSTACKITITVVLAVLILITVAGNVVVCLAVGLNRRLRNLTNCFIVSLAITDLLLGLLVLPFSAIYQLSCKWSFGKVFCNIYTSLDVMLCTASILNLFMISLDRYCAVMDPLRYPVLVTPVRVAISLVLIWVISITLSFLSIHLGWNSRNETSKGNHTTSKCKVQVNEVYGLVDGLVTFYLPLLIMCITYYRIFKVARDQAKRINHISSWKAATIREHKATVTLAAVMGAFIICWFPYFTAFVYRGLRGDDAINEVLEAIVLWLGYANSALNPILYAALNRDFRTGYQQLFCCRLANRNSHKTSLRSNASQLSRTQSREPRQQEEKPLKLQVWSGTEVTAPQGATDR
From the text: Proc Natl Acad Sci USA. 87(5): 1658-1662, 1990]. […] Proc Natl Acad Sci USA. 87(5): 1658-1662, 1990]. […] Tiotidine is used as positive control.

[2] = target: T6, serotonin receptor 5-HT1B (Rattus norvegicus, UniProt P28564); assay: Radioligand binding to serotonin receptor 5-HT1B ([125I] cyanopindolol, rat brain cortex membranes)
T6 construct: membrane species are prepared from rat brains (Wistar) by homogenization of species of rat brain-cortices; from tissue; host or cells: rat (Wistar) brain cortex
T6 sequence (P28564 whole entry): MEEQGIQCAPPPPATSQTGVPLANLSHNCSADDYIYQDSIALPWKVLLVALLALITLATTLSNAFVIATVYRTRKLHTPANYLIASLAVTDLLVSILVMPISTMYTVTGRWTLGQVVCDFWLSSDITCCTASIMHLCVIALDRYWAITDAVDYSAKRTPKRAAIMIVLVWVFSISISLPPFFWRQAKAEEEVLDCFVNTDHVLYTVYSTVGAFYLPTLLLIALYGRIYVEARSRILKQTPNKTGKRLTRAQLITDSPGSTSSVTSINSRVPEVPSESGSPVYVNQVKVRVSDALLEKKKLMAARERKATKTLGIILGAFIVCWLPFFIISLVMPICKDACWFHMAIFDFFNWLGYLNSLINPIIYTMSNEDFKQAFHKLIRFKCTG
From the text: Serotonin is used as positive control.

[3] = target: T7, recombinant human 5-HT2B receptor (Homo sapiens, UniProt P41595); assay: Radioligand binding to serotonin receptor 5-HT2B ([3H] Lysergic acid diethylamide, CHO-K1 membranes)
T7 construct: expressed in transfected cells; host or cells: CHO-K1
T7 sequence (P41595 whole entry): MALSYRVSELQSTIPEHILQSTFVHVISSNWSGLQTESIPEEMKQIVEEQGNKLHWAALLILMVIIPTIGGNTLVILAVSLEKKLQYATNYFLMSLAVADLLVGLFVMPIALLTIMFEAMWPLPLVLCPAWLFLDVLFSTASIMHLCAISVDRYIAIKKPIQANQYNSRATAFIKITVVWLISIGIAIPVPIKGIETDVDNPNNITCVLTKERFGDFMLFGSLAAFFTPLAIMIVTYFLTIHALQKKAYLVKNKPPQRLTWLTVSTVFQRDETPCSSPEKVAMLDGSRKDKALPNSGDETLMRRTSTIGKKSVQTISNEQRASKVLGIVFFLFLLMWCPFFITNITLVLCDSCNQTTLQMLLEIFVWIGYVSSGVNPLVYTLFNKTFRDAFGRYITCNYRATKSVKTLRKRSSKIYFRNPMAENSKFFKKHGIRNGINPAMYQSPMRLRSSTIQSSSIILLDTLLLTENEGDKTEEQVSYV

[4] = read-out: α-Adrenoceptor, % inhibition α1A
[5] = read-out: α-Adrenoceptor, % inhibition α1B
[6] = read-out: α-Adrenoceptor, % inhibition α1D
[7] = last block of Table 11: receptor printed 5-HT6 in r18, cell blank in r19-r21

| SMILES | % inhibition (imidazoline receptor I2; 10 µM ligand) | inhibition at 10 µM (adrenergic receptor α1A; [4]) | inhibition at 10 µM (adrenergic receptor α1B; [5]) | inhibition at 10 µM (human α1D receptor; [6]) | inhibition at 10 µM (human H2 receptor) | inhibition at 10 µM ([2]; read-out: 5-HT1B % inhibition) | IC50 (imidazoline receptor I2) | Ki (imidazoline receptor I2) | nH ([3]; 5-HT2B) | nH (adrenergic receptor α1A) | nH (adrenergic receptor α1B) | nH ([1]; 5-HT6) | further results |
| --- | --- | --- | --- | --- | --- | --- | --- | --- | --- | --- | --- | --- | --- |
| Cc1ccc2c(c1)[C@@H]1CN(C)CCC[C@@H]1N2CCc1cccnc1 (relative stereo) [1.6.1(1)·3HCl] | 80% | 90% | 94% | 90% | 48% |  |  |  |  |  |  |  | inhibition at 1 µM ([1]; read-out: 5-HT6 % inhibition): 84% |
| Cc1ccc2c(c1)[C@@H]1CN(C)CCC[C@@H]1N2CCc1ccc(C)nc1 (relative stereo) [1.6.1(2)·3HCl] | 80% |  | 93% | 87% | 66% | -6% |  |  |  |  |  |  | inhibition at 1 µM ([1]; read-out: 5-HT6 % inhibition): 76%; inhibition at 10 µM ([1]; read-out: 5-HT6 % inhibition): -10%; inhibition at 10 µM ([3]; read-out: 5-HT2B % inhibition): -2% |
| Cc1ccc2c(c1)c1c(n2CCc2ccccc2)CCN(C)C1 [1.1.2(1-2)·HCl, 2,8-dimethyl-5-phenethyl-1,2,3,4-tetrahydro-1H-pyrido[4,3-b]indole hydrochloride] | 93% | 99% | 101% | 102% | 102% | 82% | 268 nM | 179 nM | 0,868 |  |  |  | inhibition at 10 µM ([3]; read-out: 5-HT2B % inhibition): 100% |
| Cc1ccc(CCn2c3c(c4cc(C)ccc42)CN(C)CC3)cc1 [1.1.2(1-3), 2,8-dimethyl-5-[2-(4-methylphenyl)-ethyl]-1,2,3,4-tetrahydro-1H-pyrido[4,3-b]indole] | 93% |  |  |  |  |  |  |  |  | 1,26 | 1,13 |  | 5-HT1B % inhibition ([2]; 10 µM ligand): 59%; nH (human α1D receptor): 1,21; 5-HT2B % inhibition ([3]; 10 µM ligand): 95% |
| Cc1ccc2c(c1)c1c(n2CCc2ccccn2)CCN(C)C1 [1.1.2(2-3)·2HCl] | 88% | 81% | 98% | 92% | 82% |  |  |  | 0.913 |  |  | 0.744 | inhibition at 1 µM ([2]; read-out: 5-HT1B % inhibition): 65%; IC50 [1]: 2.14 nM; Ki [1]: 1.23 nM; nH [1, 7]: 0.655; inhibition at 1 µM ([3]; read-out: 5-HT2B % inhibition): 89% |
| Cc1ccc2c(c1)c1c(n2CCc2ccc(C)nc2)CCN(C)C1 [1.1.2(4-2)·2HCl] | 98% |  |  |  |  |  | 310 nM | 210 nM |  | 1.12 | 1.54 |  | inhibition at 10 µM (adrenergic receptor α1A; 10 µM ligand, read-out: α-Adrenoceptor, % inhibition α1A): 97%; inhibition at 10 µM ([2]; 10 µM ligand, read-out: 5-HT1B % inhibition): 19%; inhibition at 10 µM (adrenergic receptor α1B; 10 µM ligand, read-out: α-Adrenoceptor, % inhibition α1B): 101%; inhibition at 10 µM ([1]; 10 µM ligand, read-out: 5-HT6 % inhibition): 90%; inhibition at 10 µM ([3]; 10 µM ligand, read-out: 5-HT2B % inhibition): 47% |
| Cc1ccc2c(c1)c1c(n2CCc2ccccn2)CCCN(C)C1 [1.2.2(2-2)] | 80% |  |  |  |  |  |  |  |  |  |  |  | α-Adrenoceptor, % inhibition α1A (adrenergic receptor α1A; 10 µM ligand): 64%; 5-HT1B % inhibition ([2]; 10 µM ligand): 6%; α-Adrenoceptor, % inhibition α1B (adrenergic receptor α1B; 10 µM ligand): 80%; 5-HT6 % inhibition ([1]; 10 µM ligand): 21%; α-Adrenoceptor, % inhibition α1D (human α1D receptor; 10 µM ligand): 63% |
| CN1CCc2c(c3ccccc3n2Cc2ccccc2)C1 [1.9(1)·1/2NDSA, bis-(5-benzyl-2-methyl-2,3,4,5-tetrahydro-1H-pyrido[4,3-b]indole) naphthalene-1,5-disulfonate] |  |  |  |  |  |  | 169 nM | 110 nM | 0.552 | 1,08 | 0,956 | 1.07 | % inhibition (imidazoline receptor I2; 0.3 µM ligand): 87(0.3 µM) %; inhibition at 1 µM (adrenergic receptor α1A; [4]): 67%; inhibition at 0.3 µM ([2]; read-out: 5-HT1B % inhibition): 4%; inhibition at 3 µM (adrenergic receptor α1B; [5]): 62%; inhibition at 0.3 µM ([1]; read-out: 5-HT6 % inhibition): 78%; nH (human α1D receptor): 1,05; inhibition at 3 µM (human α1D receptor; [6]): 70%; Histamine receptors, % inhibition H2 (human H2 receptor; 10 µM ligand): 97%; IC50 ([3]; 5-HT2B): 31.4 nM; Ki ([3]; 5-HT2B): 20 nM |
| CN1CCc2c(c3ccccc3n2Cc2ccccc2)C1.Cl [1.9(1)·HCl, 5-benzyl-2-methyl-2,3,4,5-tetrahydro-1H-pyrido[4,3-b]indole hydrochloride] |  | 70% | 70% |  | 97% | 13% |  |  | 0.836 |  |  | 1.04 | % inhibition (imidazoline receptor I2; 3 µM ligand): 75 (3 µM) %; IC50 (imidazoline receptor I2; hydrochloride): 994 nM; Ki (imidazoline receptor I2; hydrochloride): 662 nM; IC50 [1]: 110 nM; Ki [1]: 63.2 nM; nH [1, 7]: 1.32; inhibition at 10 µM ([1]; read-out: 5-HT6 % inhibition): 71%; inhibition at 10 µM ([3]; read-out: 5-HT2B % inhibition, 10 µM ligand): 99% |
